Bounds are passed on as bounds.

The text below walks through data of article PMC7312386, “The Effect of Substituted Benzene-Sulfonamides and Clinically Licensed Drugs on the Catalytic Activity of CynT2, a Carbonic Anhydrase Crucial for Escherichia coli Life Cycle” (International Journal of Molecular Sciences, 2020).

The target in one assay is T1, CynT2 (Escherichia coli, UniProt P61517).
T1 construct: gene can; oligomer not determined (dimer or tetramer stated for bacterial beta-CAs in general)
T1 sequence (P61517 whole entry): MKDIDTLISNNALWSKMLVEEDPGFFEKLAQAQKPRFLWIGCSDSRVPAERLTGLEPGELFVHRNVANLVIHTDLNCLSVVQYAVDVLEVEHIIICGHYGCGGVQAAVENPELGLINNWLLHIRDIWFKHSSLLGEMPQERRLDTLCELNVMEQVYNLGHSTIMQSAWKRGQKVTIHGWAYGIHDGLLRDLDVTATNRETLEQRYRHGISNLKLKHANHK
Nature of the assay: stopped-flow CO2 hydrase assay, phenol red. It is filed as biochemical.
Settings: not given
In turn, `NCCc1ccc(S(N)(=O)=O)cc1` [compound 6, 6] showed a Ki of 3320 nM.

The same assay, now with this note: read-out: KI *(nM) / CynT2.
Take `CCN[C@H]1CN(CCCOC)S(=O)(=O)c2sc(S(N)(=O)=O)cc21` [BRZ, Brinzolamide]: the Ki was 2050 nM.
With `NS(=O)(=O)c1nnc(NS(=O)(=O)c2ccccc2)s1` [BZA, Benzolamide], the Ki was 276 nM.
The same measure, in the same setting: then `Cc1ccc(-c2cc(C(F)(F)F)nn2-c2ccc(S(N)(=O)=O)cc2)cc1` [CLX, Celecoxib], with 1890 nM.
In the case of `NS(=O)(=O)c1cc(Cl)c(Cl)c(S(N)(=O)=O)c1` [DCP, Dichlorophenamide], the Ki was over 10000 nM.
With `NS(=O)(=O)NCCNc1nonc1C(=NO)Nc1ccc(F)c(Br)c1` [EPA, Epacadostat], the Ki was 2560 nM.
For `NC(N)=Nc1nc(CSCCC(N)=NS(N)(=O)=O)cs1` [FAM, Famotidine], the Ki was determined as 2770 nM.
Same read-out and setting: as for `NS(=O)(=O)c1cc2c(cc1Cl)NCNS2(=O)=O` [HCT, Hydrochlorothiazide], the figure is 5010 nM; as for `NS(=O)(=O)c1ccc(S(=O)(=O)Nc2cccc3c(Cl)c[nH]c23)cc1` [IND, Indisulam], 2390 nM; as for `CC(=O)N=c1sc(S(N)(=O)=O)nn1C` [MZA, Methazolamide], 480 nM.
On the same count and under the same terms, then `O=C1NS(=O)(=O)c2ccccc21` [SAC, Saccharin], with 6690 nM; and `CCN1CCCC1CNC(=O)c1cc(S(N)(=O)=O)ccc1OC` (centres unmarked) [SLP, Sulpiride], with 97 nM.
Consider `NS(=O)(=O)c1ccc(N2CCCCS2(=O)=O)cc1` [SLT, Sulthiame], for which the Ki came out at 285 nM.
Regarding `CC1(C)O[C@@H]2[C@@H](CO[C@@]3(COS(N)(=O)=O)OC(C)(C)O[C@@H]23)O1` [TPM, Topiramate], the Ki was 3360 nM.
On to `Cc1onc(-c2ccccc2)c1-c1ccc(S(N)(=O)=O)cc1` [VLX, Valdecoxib], for which the Ki was 2750 nM.
Turning to `NS(=O)(=O)Cc1noc2ccccc12` [ZNS, Zonisamide], the Ki is 3190 nM.
Regarding `Nc1cccc(S(N)(=O)=O)c1` [compound 1, 1], the Ki worked out at 705 nM.
In the case of `Nc1ccc(S(N)(=O)=O)cc1` [compound 2, 2], the Ki is 790 nM.
Same read-out and setting: as for `NS(=O)(=O)c1cccc(S(N)(=O)=O)c1` [compound 3, 3], the figure is 457 nM.
For the molecule `Cc1ccc(S(N)(=O)=O)cc1` [compound 4, 4], the Ki was determined as 3010 nM.
The same measure, in the same setting: as for `NCc1ccc(S(N)(=O)=O)cc1` [compound 5, 5], the figure is 2840 nM; as for `Nc1ccc(S(N)(=O)=O)cc1F` [compound 7, 7], over 10000 nM.
On to `Nc1ccc(S(N)(=O)=O)cc1Cl` [compound 8, 8], for which the Ki is over 10000 nM.
Still for that read-out and setting: then `Nc1ccc(S(N)(=O)=O)cc1Br` [compound 9, 9], with 2710 nM.
Same read-out and setting: as for `NS(=O)(=O)c1cc(Cl)cc(Cl)c1O` [compound 10, 10], the figure is 8560 nM.
As to `Nc1cc(C(F)(F)F)c(S(N)(=O)=O)cc1S(N)(=O)=O` [compound 11, 11], the Ki amounted to 6250 nM.
On to `Nc1cc(Cl)c(S(N)(=O)=O)cc1S(N)(=O)=O` [compound 12, 12], for which the Ki was 4390 nM.
Consider `Nc1nnc(S(N)(=O)=O)s1` [compound 13, 13], for which the Ki was found to be 4120 nM.
Take `Cn1nc(S(N)(=O)=O)sc1=N` [compound 14, 14]: the Ki amounted to 440 nM.
Regarding `NS(=O)(=O)c1ccc(O)cc1` [compound 15, 15], the Ki turned out to be 6440 nM.
With `NS(=O)(=O)c1ccc(CO)cc1` [compound 16, 16], the Ki worked out at 2340 nM.
Consider `NS(=O)(=O)c1ccc(CCO)cc1` [compound 17, 17], for which the Ki was found to be 502 nM.
Take `NS(=O)(=O)c1ccc(C(=O)O)cc1` [compound 18, 18]: the Ki was found to be 205 nM.
As for `Nc1nccc(Nc2ccc(S(N)(=O)=O)cc2)n1` [compound 19, 19], the Ki stood at 416 nM.
For the molecule `Nc1ccc(S(=O)(=O)Nc2nnc(S(N)(=O)=O)s2)cc1` [compound 20, 20], the Ki stood at 726 nM.
On the same count and under the same terms, then `Nc1ccc(S(=O)(=O)Nc2ccc(S(N)(=O)=O)cc2)cc1` [compound 22, 22], with 93 nM; and `Nc1ccc(S(=O)(=O)NCc2ccc(S(N)(=O)=O)cc2)cc1` [compound 23, 23], with 322 nM.
With `Nc1ccc(S(=O)(=O)NCCc2ccc(S(N)(=O)=O)cc2)cc1` [compound 24, 24], the Ki came to 82 nM.
